By inhibition is commonly meant the share of the control response that was lost under treatment. By melting point is commonly meant the temperature of the solid-liquid transition.

Structures are written as SMILES.

The test system of one data set is IL-6. As to the kind of experiment: IL-6 production from LPS-stimulated human monocytes (ELISA). It counts as cell-based. Particulars: Monocyte; for inhibition at 1 µM: Conc. 1 μM. On the procedure:
This assay determines the effect of test compounds on the production of IL-6 from human monocytes. Compounds are tested for their ability to downregulate the production of IL-6 in activated monocytes. Test compounds were incubated for three, six and twenty four hours with human monocytes. Lipopolysaccharide was used to stimulate the monocytes. The level of Interleukin-6 is quantitated using Enzyme-Linked Immunosorbent assay performed in a 96 well format.
On the technique in general: In an ELISA, binding on a coated surface is turned into a signal by an enzyme label.

A further data set has as its system TNF-α. As to the kind of experiment: TNF-α production from LPS-stimulated human monocytes (ELISA). The class given is cell-based. The following applies: Monocyte; for inhibition at 10 µM: Conc. 10 μM. Here is the method: Tumor Necrosis Factor Alpha (TNF-α)
This assay determines the effect of test compounds on the production of TNF-α from human monocytes. Compounds were tested for their ability to downregulate the production of TNF-α in activated monocytes. Test compounds were incubated for three, six and twenty four hours with human monocytes. Lipopolysaccharide was used to stimulate the monocytes. The level of TNF-α was quantitated using Enzyme-Linked Immunosorbent assay performed in a 96 well format.

A further data set has as its target T1, COX-2 (Homo sapiens, UniProt P35354).
T1 construct: Fresh blood was collected in tubes containing potassium EDTA by vein puncture from male volunteers; endogenous in cells; host or cells: fresh human whole blood from male volunteers, aspirin-pretreated, LPS-stimulated for 24 h
T1 sequence (P35354 18-604): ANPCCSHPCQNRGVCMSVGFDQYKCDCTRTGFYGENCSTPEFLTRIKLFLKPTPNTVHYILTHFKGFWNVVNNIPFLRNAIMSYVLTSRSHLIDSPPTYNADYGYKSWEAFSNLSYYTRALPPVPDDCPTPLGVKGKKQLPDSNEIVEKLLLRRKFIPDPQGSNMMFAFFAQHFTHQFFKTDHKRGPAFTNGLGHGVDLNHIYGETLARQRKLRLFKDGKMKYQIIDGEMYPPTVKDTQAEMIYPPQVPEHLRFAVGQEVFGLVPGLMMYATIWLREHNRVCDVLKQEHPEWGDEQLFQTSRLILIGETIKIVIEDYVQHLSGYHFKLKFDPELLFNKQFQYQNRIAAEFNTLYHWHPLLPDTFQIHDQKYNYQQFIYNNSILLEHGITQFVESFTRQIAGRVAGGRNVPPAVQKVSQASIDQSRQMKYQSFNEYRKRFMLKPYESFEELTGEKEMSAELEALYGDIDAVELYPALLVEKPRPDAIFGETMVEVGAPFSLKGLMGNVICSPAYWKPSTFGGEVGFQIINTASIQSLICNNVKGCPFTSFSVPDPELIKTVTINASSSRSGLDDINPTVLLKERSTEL
Put plainly: Human whole blood assay, COX-2 inhibition (LPS-induced PGE2). It counts as cell-based. The following applies: 24 h. On the procedure: In vitro Evaluation of Cycloxygenase-2 (COX-2) Inhibition Activity
The COX-2 inhibition activity of the compounds illustrated in the examples was determined by the following method.
Human whole blood provides a protein and cell rich milieu appropriate for the study of biochemical efficacy of anti-inflammatory compounds such as selective COX-2 inhibitors. […] This is correlating with the observation that COX-2 inhibitors have no effect on prostaglandin E2 (PGE2) production in normal blood. These inhibitors are active only after incubation of human blood with lipopolysaccharide (LPS), which induces COX-2 production in the blood.
Fresh blood was collected in tubes containing potassium EDTA by vein puncture from male volunteers. The subjects should have no apparent inflammatory conditions and not taken NSAIDs for atleast 7 days prior to blood collection. Blood was treated with aspirin in vitro (10 μg/ml, at time zero) to inactivate COX-1, and then with LPS (10 μg/ml) along with test agents or vehicle. The blood was incubated for 24 h at 37° C., after which the tubes were centrifuged, the plasma was separated and stored at −80° C. (J Pharmacol Exp Ther 271, 1705, 1994; Proc Natl Acad Sci USA 96, 7563, 1999). The plasma was assayed for PGE2 using Cayman ELISA kit as per the procedure outlined by the manufacturer (Cayman Chemicals, Ann Arbor, USA). […]

Data set [1] relates to Male Wistar rats. As to the kind of experiment: Gastro-ulcerogenic potential (ulcer formation in the rats of the paw edema test). It counts as in vivo, rat. Particulars: oral dosing. On the procedure: (§1) The carrageenan paw edema test was performed as described by Winter et al (Proc. Soc. Exp Biol Me., 111, 544, 1962). Male Wistar rats were selected and the body weight were equivalent within each group. The rats were fasted for eighteen hours with free access to water. The rats were dosed orally with the test compound suspended in vehicle containing 0.5% Methycellulose. The control rats were administered the vehicle alone. After one hour the rats were injected with 0.1 ml of 1% Carrageenan solution in 0.9% saline into the sub plantar surface of the right hind paw. Paw thickness was measured using vernier calipers at 0 time, after 2 and 3 hours. The average of foot swelling in drug treated animals was compared with that of control animals. Anti-inflammatory activity was expressed as the percentage inhibition of edema compared with control group [Arzneim-Forsch/Drug Res 43(I), 1, 44-50, 1993; Otterness and Bliven, Laboratory Models for Testing NSAIDs, In Non-Steroidal Anti-Inflammatory Drugs, (J. Lombardino, ed. 1985)]. The data of the selected compounds in this invention are summarized in Table I. In order to evaluate their role on the ulcer formation, the animals were sacrificed by cervical dislocation, the stomach removed and flushed with 1% formalin (10 ml). The stomach was opened along the greater curvature. The haemorrhagic puncta and sulci were identified macroscopically.

Data set [2] concerns Male Wistar rats. Put plainly: Rat carrageenan paw edema test. It counts as in vivo. The following applies: oral. On the procedure: Rat Carrageenan Paw Edema Test
as §1, with “The haemorrhagic puncta and sulci were identified macroscopically.” left out
For orientation: The carrageenan paw model is a standard test of acute inflammation.

With `COc1ccc(-n2c(N)cc(=O)nc2Nc2ccccc2)cc1` [Example 9, 6-amino-1-(4-methoxyphenyl)-2-phenylamino-1H-pyrimidin-4-one], the melting point lay in the range of 180 to 190 °C. For the same compound, the inhibition at 1 µM in the data set with IL-6 was 75.4%. The compound also had an inhibition at 10 µM in the data set with TNF-α of 45.2%.

`CSc1ccc(Nc2nc(=O)cc(N)n2-c2ccccc2)cc1` [Example 4, 6-amino-2-(4-methylthio-phenylamino)-1-phenyl-1H-pyrimidin-4-one] showed a melting point of 133 to 135 °C. The compound also returned an inhibition at 1 µM in the data set with IL-6 of 56.7%. The same compound displayed an inhibition at 10 µM with TNF-α of 43.5%.

`Nc1cc(=O)nc(Nc2ccc(F)cc2)n1-c1ccccc1` [Example 7, 6-amino-2-(4-fluoro-phenylamino)-1-phenyl-1H-pyrimidin-4-one]: the melting point was 225 to 227 °C.

Compound `CSc1ccc(Nc2nc(=O)cc(N)n2-c2ccc(C)cc2)cc1` [Example 8, 6-amino-1-(4-methylphenyl)-2-(4-methylthio-phenylamino)-1H-pyrimidin-4-one] gave a melting point of 231 to 234 °C.

Consider `Nc1cc(=O)nc(Nc2ccccc2)n1-c1ccc(Br)cc1` [Example 12, 6-amino-1-(4-bromophenyl)-2-phenylamino-1H-pyrimidin-4-one], for which the melting point is 211 to 213 °C.

Consider `CCOc1ccc(Nc2nc(=O)cc(N)n2-c2ccccc2)cc1` [Example 3, 6-amino-2-(4-ethoxy-phenylamino)-1-phenyl-1H-pyrimidin-4-one], for which the melting point is 111 to 113 °C. Further, in the data set with IL-6, at 1 µM the inhibition was 82.3%. Besides, at 1 µM the inhibition with TNF-α (Conc. 1 μM) was 58.3%.

Consider `Nc1cc(=O)nc(Nc2ccccc2)n1-c1ccc(Cl)cc1` [Example 11, 6-amino-1-(4-chlorophenyl)-2-phenylamino-1H-pyrimidin-4-one], for which the melting point lay within 216 to 222 °C. In the data set on IL-6, the inhibition at 1 µM was found to be 59.5%.

In turn, `Cc1ccc(Nc2nc(=O)cc(N)n2-c2ccccc2)cc1` [Example 5, 6-amino-2-(4methyl-phenylamino)-1-phenyl-1H-pyrimidin-4-one] registered a melting point of 207 to 210 °C.

`COc1ccc(Nc2nc(=O)cc(N)n2-c2ccccc2)cc1` [Example 2, 6-amino-2-(4-methoxy-phenylamino)-1-phenyl-1H-pyrimidin-4-one] registered a melting point of 213 to 216 °C. Moreover, at 1 µM the inhibition in the data set on IL-6 was 65.1%.

`CCOc1ccc(-n2c(N)cc(=O)nc2Nc2ccccc2)cc1` [Example 10, 6-amino-1-(4-ethoxyphenyl)-2-phenylamino-1H-pyrimidin-4-one] came in with a melting point of 114 to 118 °C. This compound came in with an inhibition at 1 µM against COX-2 (Conc. 1 μM) of 33.3%.

`Nc1cc(=O)nc(Nc2ccccc2)n1-c1ccccc1` [Example 1, 6-amino-2-phenylamino-1-phenyl-1H-pyrimidin-4-one] registered a melting point of 202 to 206 °C. The same compound registered an inhibition at 0.25 µM in the data set with IL-6 (Conc. 0.25 μM) of 46.6%. The “Gastro-ulcerogenic potential (% incidence of ulceration)” value in the data set on Male Wistar rats [1] worked out at 24.6%. Also, the inhibition at 10 µM against COX-2 (Conc. 10 μM) is 75.8%. Further, the “Rat Paw Edema model % Inhibition (10 mg/kg body weight)” value with Male Wistar rats [2] is given as 10%.

With `Nc1cc(=O)nc(Nc2ccc(Cl)cc2)n1-c1ccccc1` [Example 6, 6-amino-2-(4-chloro-phenylamino)-1-phenyl-1H-pyrimidin-4-one], the melting point fell in the range of 233 to 237 °C. For the same compound, the inhibition at 1 µM in the data set with IL-6 worked out at 44.6%.
